Reference: patent US20240358735A1, “THERAPEUTIC COMPOSITIONS AND RELATED METHODS” (BOYCE THOMPSON INSTITUTE FOR PLANT RESEARCH, INC., priority 2021, published 2024)

What was measured:
[1] = tested on: proteasome alpha and beta subunits; assay: Thermal proteome profiling (TPP) of C. elegans lysates; type: binding; conditions: compound 0.1 mM; for thermal stability of majority detected proteasome alpha and beta subunits (TPP): C. elegans lysate 1 mg/mL, 15 min room temperature, heated; for thermal stability of proteasome subunit PBS-1 (TPP): FIG. 36, C. elegans lysate
Source text: (§1) To investigate the cellular interactors of MOGLs, two independent approaches were applied: thermal proteome profiling (TPP) and limited proteolysis-coupled mass spectrometry (LiP-MS), to uncover binding events upon compound treatment of C. elegans lysates using MOGLs of the sngl-class as an example. […] Moreover, there were multiple peptides from proteasome alpha subunits and one peptide from the beta unit that were differential, with absence-present contrast, in the LiP-MS experiment (FIG. 35). Results from these two assays which reflect distinct biophysical properties of protein-small molecule binding, strongly support interaction between sngl #1 and sngl #2 with the proteasome.
C. elegans lysate preparation and compound incubation. Synchronized pah-1(syb3596); tph-1(mg280) double knockout C. elegans were grown with ΔtnaA E. coli (JW3686-7) for two generations; growth conditions and harvesting procedures were as described in the ‘Nematode cultures’ section above. Worms were lysed by sonication with lysis buffer (25 mM Tris pH 7.5, 150 mM NaCl, 1.5 mM MgCl2.1 mM phenylmethylsulfonyl fluoride, 1× protease inhibitor cocktail (Roche), 1 mM sodium fluoride) for 5 min (3 s on/off pulse cycle at Amp 100). Protein concentration was determined by Bradford assay (MilliporeSigma) and diluted to 1 mg/mL by lysis buffer. To each aliquot of lysate was added compound (sngl #1, sngl #2, N-acetylserotonin, and solvent (ethanol) control (Mock)) to a final concentration of 0.1 mM and the mixtures were shaken for 15 min at room temperature.
Thermal proteome profiling (TPP) sample preparation. Methods were modified from published protocol (Franken, H., T. et al. Nature Protocols 10(10): 1567-1593). Lysate-compound mixture were aliquoted into 0.2-mL PCR tubes, heated at specified temperatures for 3 min using a Thermal Cycler (BioRad), centrifuged at 16,000 g at 4° C. for 5 min, and the supernatant were transferred into Eppendorf tubes. Four volumes of prechilled (−20° C.) acetone were added to each sample for precipitation of proteins overnight. Samples were centrifuged at 16,000 g at 4° C. for 20 min, washed once by methanol, and the resulting protein pellets were dissolved in urea buffer (50 mM ammonium bicarbonate, 2 M thiourea, 6 M urea). To digest proteins for mass spectrometry analysis, proteins were first reduced by dithiothreitol (final concentration 5 mM) for 30 min at room temperature, alkylated by iodoacetamide (final concentration 15 mM) for 30 min at room temperature in the dark, digested by LysC/Trypsin Mix (Promega) (enzyme/substrate=1/30, w/w) based on manufacturer's instructions. […] Peptides were measured by nanoHPLC-MS/MS by standard methods.

[2] = tested on: proteasome alpha and beta subunits; assay: Limited proteolysis-coupled mass spectrometry (LiP-MS) of C. elegans lysates; type: binding; conditions: FIG. 35; C. elegans lysate, compound 0.1 mM, proteinase K
Source text: as §1
To obtain mechanistic insight into the binding of proteasome with sngl #1/sngl #2, LiP-MS data were analyzed to reveal peptides around sub-structures of proteins where the binding occurs.
C. elegans lysate preparation and compound incubation. Synchronized pah-1(syb3596); tph-1(mg280) double knockout C. elegans were grown with ΔtnaA E. coli (JW3686-7) for two generations; growth conditions and harvesting procedures were as described in the ‘Nematode cultures’ section above. […] Protein concentration was determined by Bradford assay (MilliporeSigma) and diluted to 1 mg/mL by lysis buffer. […]

| Structure (SMILES) | thermal stability of majority detected proteasome alpha and beta subunits (TPP) [1] | thermal stability of proteasome subunit PBS-1 (TPP) [1] | PAS- or PBS-derived peptides detected in LiP-MS [2] |
| --- | --- | --- | --- |
| CC(=O)NCCc1c[nH]c2ccc(O[C@@H]3O[C@H](CO)[C@@H](O)[C@H](O)[C@H]3O)cc12 [sngl #1, N-(2-(5-(((2S,3R,4S,5S,6R)-3,4,5-trihydroxy-6-(hydroxymethyl)tetrahydro-2H-pyran-2-yl)oxy)-1H-indol-3-yl)ethyl)acetamide] | significantly change the thermal stability | affect the thermal stability | indicative of specific binding to PAS and PBS |
| CC(=O)NCCc1c[nH]c2ccc(O[C@@H]3O[C@H](CO)[C@@H](O)[C@H](OP(=O)(O)O)[C@H]3O)cc12 [sngl #2, (2S,3R,4S,5R,6R)-2-((3-(2-acetamidoethyl)-1H-indol-5-yl)oxy)-3,5-dihydroxy-6-(hydroxymethyl)tetrahydro-2H-pyran-4-yl dihydrogen phosphate] | significantly change the thermal stability | affect the thermal stability | indicative of specific binding to PAS and PBS |
